In brackets after ≈: the same amount, converted by molar mass. Read-outs that look alike come from different tables or passages of the source.
Key:
[1] = test system: Mtb H37Ra ITM-M006710 (ATCC 9431); test: Microplate Alamar Blue Assay (MABA) microdilution, Mtb H37Ra; format: cell-based, Mycobacterium tuberculosis; conditions: Mycobacterium tuberculosis
[2] = test system: Candida tropicalis CCM 8264 (ATCC 750); test: Antifungal microdilution broth method, CT; format: cell-based; conditions: 24 h, read-out: MIC CT
[3] = test system: Aspergillus fumigatus ATCC 204305; test: Antifungal microdilution broth method, AF; format: cell-based; conditions: ATCC204305, 48 h, read-out: MIC AF
[4] = test system: Aspergillus flavus CCM 8363; test: Antifungal microdilution broth method, AFla; format: cell-based; conditions: CCM8363, read after 48 h (filamentous fungi), read-out: MIC AFla
Procedure: 6. In vitro antifungal activity screening
Antifungal activity evaluation was performed using a microdilution broth method according to EUCAST instructions (The European Committee on Antimicrobial Susceptibility Testing) with slight modifications. Eight fungal strains (four yeast and four mould strains) were used for antifungal […]
and Trichophyton interdigitale CCM 8377 (ATCC 9533). Tested strains were purchased from the Czech Collection of Microorganisms (CCM, Brno, Czech Republic) or from the American Type Collection Cultures (ATCC, Manassas, VA, USA). Tested compounds were dissolved in DMSO and diluted in a twofold manner with RPMI 1640 medium, with glutamine and 2% glucose, buffered to pH 7.0 with MOPS (3-morpholinopropane-1-sulfonic acid). The final concentration of DMSO in the testing […]
Static incubation was performed in the dark and in humid atmosphere, at 35±2 °C, for 24 and 48 h (72 and 120 h for Trichophyton interdigitale respectively). Positive controls consisted of test microbe solely, while negative controls consisted of cultivation medium and DMSO. Visual inspection and metabolic activity indicator, Alamar Blue (ThermoFisher Scientific), were used for MIC endpoint evaluation. The internal quality standards, amphotericin B (Sigma-Aldrich) and voriconazole (Toronto research Chemicals, CA) were involved in assays (for MIC of standards see Table S5). All experiments were conducted in duplicates.
For the results to be valid, the difference in MIC for one compound determined from two parallel measurements must not be greater than one step on the dilution scale.

[5] = test system: Staphylococcus epidermidis CCM 4418 (ATCC 12228); test: Antibacterial microdilution broth method, SE; format: cell-based; conditions: 24 h, read-out: MIC SE
[6] = test system: M. smegmatis DSM 43465 (ATCC 607); test: Microplate Alamar Blue Assay (MABA) microdilution, M. smegmatis; format: cell-based, Mycobacterium smegmatis; conditions: Mycolicibacterium smegmatis
[7] = test system: Candida albicans CCM 8320 (ATCC 24433); test: Antifungal microdilution broth method, CA; format: cell-based; conditions: 24 h, read-out: MIC CA
[8] = test system: Klebsiella pneumoniae CCM 4415 (ATCC 10031); test: Antibacterial microdilution broth method, KP; conditions: read after 24 h of incubation
[9] = test system: Candida krusei CCM 8271 (ATCC 6258); test: Antifungal microdilution broth method, CK; format: cell-based; conditions: Pichia kudriavzevii, 24 h, read-out: MIC CK
[10] = test system: Candida parapsilosis CCM 8260 (ATCC 22019); test: Antifungal microdilution broth method, CP; format: cell-based; conditions: Lodderomyces parapsilosis, 24 h, read-out: MIC CP
[11] = test system: Lichtheimia corymbifera CCM 8077; test: Antifungal microdilution broth method, LC; format: cell-based; conditions: CCM8077, 48 h, read-out: MIC LC
[12] = test system: Mycobacterium aurum DSM 43999 (ATCC 23366); test: Microplate Alamar Blue Assay (MABA) microdilution, M. aurum; format: cell-based; conditions: Mycolicibacterium aurum
[13] = test system: Trichophyton interdigitale CCM 8377 (ATCC 9533); test: Antifungal microdilution broth method, TI; format: cell-based; conditions: 48 h, read-out: MIC TI
[14] = pH 6.6, read-out: MIC Mtb H37Ra
[15] = pH 6, calculated from µg/mL, read-out: MIC Mtb H37Ra
[16] = pH 6, read-out: MIC M. smegmatis µg/mL
[17] = pH 6.6, read-out: MIC M. smegmatis
[18] = pH 6, read-out: MIC M. aurum µg/mL

SMILES	MIC ([1]; pH 6)	MIC ([1]; pH 6, read-out: MIC Mtb H37Ra)	MIC [1, 14]	MIC [1, 15]	MIC [2]	MIC [3]	MIC [4]	MIC [5]	MIC [6, 16]	MIC [6, 17]	MIC [7]	MIC KP [8]	MIC [9]	MIC [10]	MIC [11]	MIC [12, 18]	MIC ([12]; pH 6.6, read-out: MIC M. aurum)	MIC [13]
COC(=O)[C@H](NC(=O)c1cnccn1)[C@H](C)OC(C)(C)C [PC-D-OtBu-Thr-Me, methyl O-(tert-butyl)-N-(pyrazine-2-carbonyl)-D-threoninate]	62.5 µg/mL	62.5 µg/mL	≥ 500 µg/mL	212 µM	> 500 µM	> 500 µM	> 500 µM	> 500 µM	≥ 500 µg/mL	≥ 500 µg/mL	> 500 µM	> 500 µM	> 500 µM	> 500 µM	> 500 µM	≥ 500 µg/mL	≥ 500 µg/mL	> 500 µM
CCOC(=O)CC[C@H](NC(=O)c1cnccn1)C(=O)OCC [PC-L-Glu-diEt, diethyl (pyrazine-2-carbonyl)-L-glutamate]	31.2 µg/mL	31.2 µg/mL	≥ 500 µg/mL	101 µM	> 500 µM	> 500 µM	> 500 µM	> 500 µM	≥ 500 µg/mL	≥ 500 µg/mL	> 500 µM	> 500 µM	> 500 µM	> 500 µM	> 500 µM	≥ 500 µg/mL	≥ 500 µg/mL	> 500 µM
COC(=O)[C@H](C)NC(=O)c1cnccn1 (racemic) [PC-DL-Ala-Me, methyl (pyrazine-2-carbonyl)alaninate]	≥ 125 µg/mL	≥ 125 µg/mL	≥ 500 µg/mL	≥ 598 µM	> 500 µM	> 500 µM	> 500 µM	> 500 µM	≥ 125 µg/mL	≥ 500 µg/mL	> 500 µM	> 500 µM	250 µM (≈ 52.3 µg/mL)	> 500 µM	> 500 µM	≥ 125 µg/mL	≥ 500 µg/mL	> 500 µM
COC(=O)[C@H](NC(=O)c1cnccn1)[C@H](C)O [PC-D-Thr-Me, methyl (pyrazine-2-carbonyl)-D-threoninate]	≥ 500 µg/mL	≥ 500 µg/mL	≥ 500 µg/mL	≥ 2090 µM	> 500 µM	> 500 µM	> 500 µM	> 500 µM	≥ 500 µg/mL	≥ 500 µg/mL	> 500 µM	> 500 µM	> 500 µM	> 500 µM	> 500 µM	≥ 500 µg/mL	≥ 500 µg/mL	> 500 µM
CCOC(=O)CNC(=O)c1cnccn1 [PC-Gly-Et, ethyl (pyrazine-2-carbonyl)glycinate]	≥ 125 µg/mL	≥ 125 µg/mL	≥ 500 µg/mL	≥ 598 µM	> 500 µM	> 500 µM	> 500 µM	> 500 µM	≥ 125 µg/mL	250 µg/mL (≈ 1200 µM)	> 500 µM	> 500 µM	> 500 µM	> 500 µM	> 500 µM	≥ 125 µg/mL	≥ 500 µg/mL	> 500 µM
CCOC(=O)[C@@H](C)NC(=O)c1cnccn1 [PC-D-Ala-Et, ethyl (pyrazine-2-carbonyl)-D-alaninate]	≥ 125 µg/mL	≥ 125 µg/mL	≥ 500 µg/mL	≥ 560 µM	> 500 µM	> 500 µM	> 500 µM	> 500 µM	≥ 125 µg/mL	≥ 500 µg/mL	> 500 µM	> 500 µM	> 500 µM	> 500 µM	> 500 µM	≥ 125 µg/mL	≥ 500 µg/mL	> 500 µM
O=C(N[C@@H](COCc1ccccc1)C(=O)O)c1cnccn1 [PC-L-OBn-Ser, O-benzyl-N-(pyrazine-2-carbonyl)-L-serine]	≥ 500 µg/mL	≥ 500 µg/mL	≥ 500 µg/mL	≥ 1660 µM	> 500 µM	> 500 µM	> 500 µM	> 500 µM	250 µg/mL (≈ 830 µM)	≥ 500 µg/mL	> 500 µM	> 500 µM	> 500 µM	> 500 µM	> 500 µM	62.5 µg/mL (≈ 207 µM)	≥ 500 µg/mL	> 500 µM
COC(=O)[C@@H](NC(=O)c1cnccn1)C(C)C [PC-L-Val-Me, methyl (pyrazine-2-carbonyl)-L-valinate]	≥ 125 µg/mL	≥ 125 µg/mL	≥ 500 µg/mL	≥ 527 µM	> 500 µM	> 500 µM	> 500 µM	> 500 µM	≥ 125 µg/mL	250 µg/mL (≈ 1050 µM)	> 500 µM	> 500 µM	> 500 µM	> 500 µM	> 500 µM	≥ 125 µg/mL	≥ 500 µg/mL	> 500 µM
